These are literature values, as cited in PubChem BioAssay AID1259409 (Chemical Carcinogenesis Research Information System (CCRIS), 2018).

In this data set the test system is rodent chemically induced tumor inhibition, incidence and multiplicity. Description: CCRIS tumor inhibitor studies.

On to `S=C=Nc1c2ccccc2c2ccc3cccc4ccc1c2c43`, for which the outcome (Carcinogen: BENZO[A]PYRENE, 50-32-8, Dose [Inhibitor]: 0, 5 UMOL IN ACETONE 4 HR PRIOR TO CARCINOGEN DOSE (STUDY DURATION: 20 WK), Route [Inhibitor]: DERMAL, Species: MOUSE, Strain/Sex: STRAIN-A/FEMALE, Target Tissue: Type of Lesion: SKIN: TUMOR, Dose [Carcinogen]: 0.1 UMOL IN ACETONE ONCE, Promoter: 12-O-TETRADECANOYLPHORBOL-13-ACETATE, 16561-29-8) is recorded as 85%, 60%, 18%, not significant at 15 wk; 95%, 90%, 5%, not significant at 20 wk.
Turning to `NC(=O)CC[C@H](N)C(=O)O`, the outcome is reported as 93.8%, 31.2% (Carcinogen: 7,12-Dimethylbenz(a)anthracene, 57-97-6, Dose [Inhibitor]: 0, 1 g/kg/day for 4 wks, Route [Inhibitor]: Oral (gavage), Species: Rat, Strain/Sex: (16/Group), Target Tissue: Type of Lesion: Mammary Gland: tumor, Dose [Carcinogen]: 100 mg/kg once at 50 days of age, study duration 4 wks, Promoter: None) and 93.8%, 43.7% (Carcinogen: 7,12-Dimethylbenz(a)anthracene, 57-97-6, Dose [Inhibitor]: 0, 1 g/kg/day for 11 wks, Route [Inhibitor]: Oral (gavage), Species: Rat, Strain/Sex: (16/Group), Target Tissue: Type of Lesion: Mammary Gland: tumor, Dose [Carcinogen]: 100 mg/kg once at 50 days of age, study duration 11 wks, Promoter: None).
Turning to `CC(C)(O)CCC(=O)C(C)(O)C1[C@H](O)C[C@@]2(C)[C@@H]3CC=C4[C@@H](C[C@H](O)[C@@H](O)C4(C)C)[C@]3(C)C(=O)C[C@]12C` (stereo partly drawn), where the note is “Carcinogen: 7,12-DIMETHYLBENZ[A]ANTHRACENE, 57-97-6, Dose [Inhibitor]: 0, 85 NMOL IN 0.1 ML ACETONE APPLIED 1 HR PRIOR TO EACH PROMOTER DOSE 2/WK FOR 20 WK (STUDY DURATION: 21 WK), Route [Inhibitor]: DERMAL, Species: MOUSE, Strain/Sex: ICR/FEMALE, Target Tissue: Type of Lesion: SKIN: PAPILLOMA, Dose [Carcinogen]: 100 UG IN 0.1 ML ACETONE ONCE, Promoter: 12-O-TETRADECANOYLPHORBOL-13-ACETATE, 16561-29-8”, the “tumour outcome (control, treated, inhibition, significance)” value is recorded as 100%, 100%, 0%, not significant.
In the case of `N`, the “tumour outcome (control, treated, inhibition, significance)” value (Carcinogen: N-BUTYL-N-(4-HYDROXYBUTYL)NITROSAMINE, 3817-11-6, Dose [Inhibitor]: 0, 1% IN DRINKING WATER FOR 31 WK BEGINNING POST CARCINOGEN DOSE (STUDY DURATION: 36 WK), Route [Inhibitor]: ORAL, Species: RAT, Strain/Sex: F344/MALE, Target Tissue: Type of Lesion: URINARY BLADDER: CARCINOMA, Dose [Carcinogen]: 0.05% IN DRINKING WATER FOR 4 WK, Promoter: BUTYLATED HYDROXYANISOLE, 25013-16-5) was 5/15 (33%), 3/15 (20%), 39%, not significant; the “tumour outcome (control, treated, inhibition, significance)” value (Carcinogen: N-BUTYL-N-(4-HYDROXYBUTYL)NITROSAMINE, 3817-11-6, Dose [Inhibitor]: 0, 1% IN DRINKING WATER FOR 31 WK BEGINNING POST CARCINOGEN DOSE (STUDY DURATION: 36 WK), Route [Inhibitor]: ORAL, Species: RAT, Strain/Sex: F344/MALE, Target Tissue: Type of Lesion: URINARY BLADDER: CARCINOMA, Dose [Carcinogen]: 0.05% IN DRINKING WATER FOR 4 WK, Promoter: SODIUM BICARBONATE, 144-55-8) was 8/15 (53%), 4/15 (27%), 49%, not significant; the “tumour outcome (control, treated, inhibition, significance)” value (Carcinogen: N-BUTYL-N-(4-HYDROXYBUTYL)NITROSAMINE, 3817-11-6, Dose [Inhibitor]: 0, 1% IN DRINKING WATER FOR 31 WK BEGINNING POST CARCINOGEN DOSE (STUDY DURATION: 36 WK), Route [Inhibitor]: ORAL, Species: RAT, Strain/Sex: F344/MALE, Target Tissue: Type of Lesion: URINARY BLADDER: PAPILLOMA, Dose [Carcinogen]: 0.05% IN DRINKING WATER FOR 4 WK, Promoter: BUTYLATED HYDROXYANISOLE, 25013-16-5) is 8/15 (53%), 8/15 (53%), 0%, not significant; the “tumour outcome (control, treated, inhibition, significance)” value (Carcinogen: N-BUTYL-N-(4-HYDROXYBUTYL)NITROSAMINE, 3817-11-6, Dose [Inhibitor]: 0, 1% IN DRINKING WATER FOR 31 WK BEGINNING POST CARCINOGEN DOSE (STUDY DURATION: 36 WK), Route [Inhibitor]: ORAL, Species: RAT, Strain/Sex: F344/MALE, Target Tissue: Type of Lesion: URINARY BLADDER: PAPILLOMA, Dose [Carcinogen]: 0.05% IN DRINKING WATER FOR 4 WK, Promoter: SODIUM BICARBONATE, 144-55-8) is given as 9/15 (60%), 8/15 (53%), 12%, not significant.
